{
  "source": "patent US9873680B2",
  "about": "(Gilead Sciences, Inc., priority 2014, dated 2018)",
  "key": {"[1]": {"assay": "Test B: Cytotoxicity Assay", "type": "cell-based", "conditions": "human, uninfected MT-4 cells, CellTiter-Glo", "description": "Test B: Cytotoxicity Assay Compound cytotoxicity and the corresponding CC50 values was determined using the same protocol as described in the antiviral assay (Test A) except that uninfected cells were used."}, "[2]": {"system": "HIV-IIIb", "assay": "Test A: Antiviral Assay in MT4 Cells", "type": "cell-based, HIV-1", "description": "Test A: Antiviral Assay in MT4 Cells\nMT-4 cells were next mixed with HIV-IIIb at an m.o.i of 0.003 for 1 hour, after which time 35 μL of virus/cell mixture (2000 cells) was immediately added to each well containing 40 μL of diluted compound. The plates were then incubated at 37° C. for 5 days. After 5 days of incubation, 25 μl of 2× concentrated CellTiter-Glo™ Reagent (catalog #G7571, Promega Biosciences, Inc., Madison, Wis.) was added to each well containing MT-4 cells. Cell lysis was carried out by incubating at room temperature for 10 min and then chemiluminescence was read."}, "[3]": {"conditions": "Human immunodeficiency virus 1, MT4, 120 h, 0.2 μM drug concentration, MT-4 cells infected with HIV-IIIb, 5 days, values normalized to 100%, average over time, read-out: % inhibition at 0.2 μM (percent inhibition of virus-induced cell killing)"}, "[4]": {"conditions": "Human immunodeficiency virus 1, IIIB, MT4, 120 h, read-out: % inhibition at 0.2 μM (percent inhibition of virus-induced cell killing)"}},
  "note": "Like-named read-outs stand apart in the source and are kept apart here.",
  "data": [
    {"molecule": "N#Cc1ccc(C#Cc2ccc(-c3ccc4c(c3)C(=O)NC4)c([C@H](Cc3cc(F)cc(F)c3)NC(=O)Cn3nc(C(F)(F)F)c4c3C(F)(F)[C@@H]3C[C@H]43)n2)cc1", "note": "[Compound 9, N—((S)-1-(6-((4-cyanophenyl)ethynyl)-3-(3-oxoisoindolin-5-yl)pyridin-2-yl)-2-(3,5-difluorophenyl)ethyl)-2-((3bS,4aR)-5,5-difluoro-3-(trifluromethyl)-3b,4,4a,5-tetrahydro-1H-cyclopropa[3,4]cyclopenta[1,2-c]pyrazol-1-yl)acetamide]", "values": [
      {"measurement": "CC50 at 5 days", "setting": "[1]", "result": "> 53.2", "unit": "µM"},
      {"measurement": "inhibition at 0.2 µM", "setting": "[2]; [3]", "result": 25, "unit": "%"}
    ]},
    {"molecule": "Cc1c(-c2ccc(C#CC3(O)COC3)nc2[C@H](Cc2cc(F)cc(F)c2)NC(=O)Cn2nc(C(F)(F)F)c3c2C(F)(F)[C@@H]2C[C@H]32)ccc2n[nH]c(=O)n12", "note": "[Compound 21, 2-((3bS,4aR)-5,5-difluoro-3-(trifluoromethyl)-3b,4,4a,5-tetrahydro-1H-cyclopropa[3,4]cyclopenta[1,2-c]pyrazol-1-yl)-N—((S)-2-(3,5-difluorophenyl)-1-(6-((3-hydroxyoxetan-3-yl)ethynyl)-3-(5-methyl-3-oxo-2,3-dihydro-[1,2,4]triazolo[4,3-a]pyridin-6-yl)pyridin-2-yl)ethyl)acetamide]", "values": [
      {"measurement": "CC50 at 5 days", "setting": "[1]", "result": 11.7, "unit": "µM"},
      {"measurement": "inhibition at 0.2 µM", "setting": "[2]; [3]", "result": 100, "unit": "%"}
    ]},
    {"molecule": "Cn1nc(NS(C)(=O)=O)c2c(Cl)ccc(-c3ccc(C#CC4CNCCO4)nc3[C@H](Cc3cc(F)cc(F)c3)NC(=O)Cn3nc(C(F)(F)F)c4c3C(F)(F)[C@@H]3C[C@H]43)c21", "note": "(stereo partly drawn) [Compound 53B, N-((1S)-1-(3-(4-chloro-1-methyl-3-(methylsulfonamido)-1H-indazol-7-yl)-6-(morpholin-2-ylethynyl)pyridin-2-yl)-2-(3,5-difluorophenyl)ethyl)-2-((3bS,4aR)-5,5-difluoro-3-(trifluoromethyl)-3b,4,4a,5-tetrahydro-1H-cyclopropa[3,4]cyclopenta[1,2-c]pyrazol-1-yl)acetamide]", "values": [
      {"measurement": "CC50 at 5 days", "setting": "[1]", "result": 6.81, "unit": "µM"},
      {"measurement": "inhibition at 0.2 µM", "setting": "[2]; [3]", "result": 100, "unit": "%"}
    ]},
    {"molecule": "Cn1nc(NS(C)(=O)=O)c2c(Cl)ccc(-c3ccc(C#CC4(CO)CC4)nc3[C@H](Cc3cc(F)cc(F)c3)NC(=O)Cn3nc(C(F)F)c4c3C(F)(F)[C@@H]3C[C@H]43)c21", "note": "[Compound 94B, N—((S)-1-(3-(4-chloro-1-methyl-3-(methylsulfonamido)-1H-indazol-7-yl)-6-((1-(hydroxymethyl)cyclopropyl)ethynyl)pyridin-2-yl)-2-(3,5-difluorophenyl)ethyl)-2-((3bS,4aR)-3-(difluoromethyl)-5,5-difluoro-3b,4,4a,5-tetrahydro-1H-cyclopropa[3,4]cyclopenta[1,2-c]pyrazol-1-yl)acetamide]", "values": [
      {"measurement": "CC50 at 5 days", "setting": "[1]", "result": 12.4, "unit": "µM"},
      {"measurement": "inhibition at 0.2 µM", "setting": "[2]; [3]", "result": 91, "unit": "%"}
    ]},
    {"molecule": "Cn1nc(NS(C)(=O)=O)c2c(Cl)ccc(-c3ccc(C#CC(C)(C)N4CCOC4=O)nc3[C@H](Cc3cc(F)cc(F)c3)NC(=O)Cn3nc(C(F)F)c4c3C(F)(F)[C@@H]3C[C@H]43)c21", "note": "[Compound 60D, N—((S)-1-(3-(4-chloro-1-methyl-3-(methylsulfonamido)-1H-indazol-7-yl)-6-(3-methyl-3-(2-oxooxazolidin-3-yl)but-1-yn-1-yl)pyridin-2-yl)-2-(3,5-difluorophenyl)ethyl)-2-((3bS,4aR)-3-(difluoromethyl)-5,5-difluoro-3b,4,4a,5-tetrahydro-1H-cyclopropa[3,4]cyclopenta[1,2-c]pyrazol-1-yl)acetamide]", "values": [
      {"measurement": "CC50 at 5 days", "setting": "[1]", "result": "> 27.8", "unit": "µM"},
      {"measurement": "inhibition at 0.2 µM", "setting": "[2]; [4]", "result": 94, "unit": "%"}
    ]},
    {"molecule": "Cn1nc(O)c2c(Cl)ccc(-c3ccc(C#CC4(O)CCOCC4)nc3[C@H](Cc3cc(F)cc(F)c3)NC(=O)Cn3nc(C(F)(F)F)c4c3CCCC4)c21", "note": "[Compound 57, (S)—N-(1-(3-(4-chloro-3-hydroxy-1-methyl-1H-indazol-7-yl)-6-((4-hydroxytetrahydro-2H-pyran-4-yl)ethynyl)pyridin-2-yl)-2-(3,5-difluorophenyl)ethyl)-2-(3-(trifluoromethyl)-4,5,6,7-tetrahydro-1H-indazol-1-yl)acetamide]", "values": [
      {"measurement": "CC50 at 5 days", "setting": "[1]", "result": 21, "unit": "µM"},
      {"measurement": "inhibition at 0.2 µM", "setting": "[2]; [4]", "result": 100, "unit": "%"}
    ]},
    {"molecule": "Cn1nc(NS(C)(=O)=O)c2c(Cl)ccc(-c3ccc(C#CC(C)(C)n4cn[nH]c4=O)nc3[C@H](Cc3cc(F)cc(F)c3)NC(=O)Cn3nc(C(F)F)c4c3C(F)(F)[C@@H]3C[C@H]43)c21", "note": "[Compound 98D, N—((S)-1-(3-(4-chloro-1-methyl-3-(methylsulfonamido)-1H-indazol-7-yl)-6-(3-methyl-3-(5-oxo-1H-1,2,4-triazol-4(5H)-yl)but-1-yn-1-yl)pyridin-2-yl)-2-(3,5-difluorophenyl)ethyl)-2-((3bS,4aR)-3-(difluoromethyl)-5,5-difluoro-3b,4,4a,5-tetrahydro-1H-cyclopropa[3,4]cyclopenta[1,2-c]pyrazol-1-yl)acetamide]", "values": [
      {"measurement": "CC50 at 5 days", "setting": "[1]", "result": 10.4, "unit": "µM"},
      {"measurement": "inhibition at 0.2 µM", "setting": "[2]; [3]", "result": 94, "unit": "%"}
    ]},
    {"molecule": "Cn1nc(NS(C)(=O)=O)c2c(Cl)ccc(-c3ccc(C#CC4(C)CNCCO4)nc3[C@H](Cc3cc(F)cc(F)c3)NC(=O)Cn3nc(C(F)F)c4c3C(F)(F)[C@@H]3C[C@H]43)c21", "note": "(stereo partly drawn) [Compound 77, N-((1S)-1-(3-(4-chloro-1-methyl-3-(methylsulfonamido)-1H-indazol-7-yl)-6-((2-methylmorpholin-2-yl)ethynyl)pyridin-2-yl)-2-(3,5-difluorophenyl)ethyl)-2-((3bS,4aR)-3-(difluoromethyl)-5,5-difluoro-3b,4,4a,5-tetrahydro-1H-cyclopropa[3,4]cyclopenta[1,2-c]pyrazol-1-yl)acetamide]", "values": [
      {"measurement": "CC50 at 5 days", "setting": "[1]", "result": 7.7, "unit": "µM"},
      {"measurement": "inhibition at 0.2 µM", "setting": "[2]; [3]", "result": 90, "unit": "%"}
    ]},
    {"molecule": "NC(=O)c1cc(-c2ccc(C#CC3(O)CCOCC3)nc2[C@H](Cc2cc(F)cc(F)c2)NC(=O)Cn2nc(C(F)(F)F)c3c2C(F)(F)[C@@H]2C[C@H]32)ccc1F", "note": "[Compound 35, 5-(2-((S)-1-(2-((3bS,4aR)-5,5-difluoro-3-(trifluoromethyl)-3b,4,4a,5-tetrahydro-1H-cyclopropa[3,4]cyclopenta[1,2-c]pyrazol-1-yl)acetamido)-2-(3,5-difluorophenyl)ethyl)-6-((4-hydroxytetrahydro-2H-pyran-4-yl)ethynyl)pyridin-3-yl)-2-fluorobenzamide]", "values": [
      {"measurement": "CC50 at 5 days", "setting": "[1]", "result": 10.1, "unit": "µM"},
      {"measurement": "inhibition at 0.2 µM", "setting": "[2]; Human immunodeficiency virus 1, IIIB, MT4, 0.2 μM drug concentration, comparison with previously published compounds, read-out: Response at 0.2 μM (percent inhibition of virus-induced cell killing)", "result": 86, "unit": "%"},
      {"measurement": "inhibition at 2 µM", "setting": "[2]; Human immunodeficiency virus 1, IIIB, MT4, 2 μM drug concentration, comparison with previously published compounds, read-out: Response at 2 μM (percent inhibition of virus-induced cell killing)", "result": 86, "unit": "%"},
      {"measurement": "inhibition at 0.2 µM", "setting": "[2]; [3]", "result": 86, "unit": "%"}
    ]},
    {"molecule": "Cn1nc(NS(C)(=O)=O)c2c(Cl)ccc(-c3ccc(C#CC4CCCNC4)nc3[C@H](Cc3cc(F)cc(F)c3)NC(=O)Cn3nc(C(F)(F)F)c4c3C(F)(F)[C@@H]3C[C@H]43)c21", "note": "(stereo partly drawn) [Compound 73, N-((1S)-1-(3-(4-chloro-1-methyl-3-(methylsulfonamido)-1H-indazol-7-yl)-6-(piperidin-3-ylethynyl)pyridin-2-yl)-2-(3,5-difluorophenyl)ethyl)-2-((3bS,4aR)-5,5-difluoro-3-(trifluoromethyl)-3b,4,4a,5-tetrahydro-1H-cyclopropa[3,4]cyclopenta[1,2-c]pyrazol-1-yl)acetamide]", "values": [
      {"measurement": "CC50 at 5 days", "setting": "[1]", "result": 6, "unit": "µM"},
      {"measurement": "inhibition at 0.2 µM", "setting": "[2]; [4]", "result": 100, "unit": "%"}
    ]},
    {"molecule": "Cn1nc(NS(C)(=O)=O)c2c(Cl)ccc(-c3ccc(C#CC(C)(C)n4ccnc4)nc3[C@H](Cc3cc(F)cc(F)c3)NC(=O)Cn3nc(C(F)F)c4c3C(F)(F)[C@@H]3C[C@H]43)c21", "note": "[Compound 80, N—((S)-1-(6-(3-(1H-imidazol-1-yl)-3-methylbut-1-yn-1-yl)-3-(4-chloro-1-methyl-3-(methylsulfonamido)-1H-indazol-7-yl)pyridin-2-yl)-2-(3,5-difluorophenyl)ethyl)-2-((3bS,4aR)-3-(difluoromethyl)-5,5-difluoro-3b,4,4a,5-tetrahydro-1H-cyclopropa[3,4]cyclopenta[1,2-c]pyrazol-1-yl)acetamide]", "values": [
      {"measurement": "CC50 at 5 days", "setting": "[1]", "result": 20.9, "unit": "µM"},
      {"measurement": "inhibition at 0.2 µM", "setting": "[2]; [3]", "result": 89, "unit": "%"}
    ]},
    {"molecule": "Cn1nc(O)c2c(Cl)ccc(-c3ccc(C#CC4(O)CCOCC4)nc3[C@H](Cc3cc(F)cc(F)c3)NC(=O)Cn3nc(C(F)F)c4c3C(F)(F)[C@@H]3C[C@H]43)c21", "note": "[Compound 109E, N—((S)-1-(3-(4-chloro-3-hydroxy-1-methyl-1H-indazol-7-yl)-6-((4-hydroxytetrahydro-2H-pyran-4-yl)ethynyl)pyridin-2-yl)-2-(3,5-difluorophenyl)ethyl)-2-((3bS,4aR)-3-(difluoromethyl)-5,5-difluoro-3b,4,4a,5-tetrahydro-1H-cyclopropa[3,4]cyclopenta[1,2-c]pyrazol-1-yl)acetamide]", "values": [
      {"measurement": "CC50 at 5 days", "setting": "[1]", "result": 22.3, "unit": "µM"},
      {"measurement": "inhibition at 0.2 µM", "setting": "[2]; [3]", "result": 100, "unit": "%"}
    ]},
    {"molecule": "Cn1nc(NS(C)(=O)=O)c2c(Cl)ccc(-c3ccc(C#CC4(O)CC5(COC5)C4)nc3[C@H](Cc3cc(F)cc(F)c3)NC(=O)Cn3nc(C(F)(F)F)c4c3C(F)(F)[C@@H]3C[C@H]43)c21", "note": "[Compound 51B, N—((S)-1-(3-(4-chloro-1-methyl-3-(methylsulfonamido)-1H-indazol-7-yl)-6-((6-hydroxy-2-oxaspiro[3.3]heptan-6-yl)ethynyl)pyridin-2-yl)-2-(3,5-difluorophenyl)ethyl)-2-((3bS,4aR)-5,5-difluoro-3-(trifluoromethyl)-3b,4,4a,5-tetrahydro-1H-cyclopropa[3,4]cyclopenta[1,2-c]pyrazol-1-yl)acetamide]", "values": [
      {"measurement": "CC50 at 5 days", "setting": "[1]", "result": 19.8, "unit": "µM"},
      {"measurement": "inhibition at 0.2 µM", "setting": "[2]; [3]", "result": 89, "unit": "%"}
    ]}
  ]
}
